According to patent US20220323383A1, “SMALL-MOLECULAR ADJUVANTS AND IMPLEMENTATIONS THEREOF” (JAWAHARLAL NEHRU CENTRE FOR ADVANCED SCIENTIFIC RESEARCH, priority 2019, published 2022):

Experiments:
Type in all cases: cell-based
[1] = test system: A. baumannii R674; assay: Chequerboard combination efficacy of adjuvant with antibiotics
Method: (§1) All the solvents were of reagent grade, which were distilled and dried before its use. All the reagents were purchased from Sigma-Aldrich, Alfa-Aesar, S.D. Fine, Avra and Spectrochem, and were used without further purification. Analytical thin layer chromatography (TLC) was performed on E. Merck TLC plates pre-coated with silica gel 60 F254 and visualization was carried out using UV light and Iodine. Column chromatography was performed on silica gel (60-120 mesh) using different ratio of chloroform and methanol solvent system. Nuclear magnetic resonance spectra were recorded on Bruker (AV-400) 400 MHz spectrometer in deuterated solvents. Mass spectra were obtained using 6538-UHD Accurate mass Q-TOF LC-MS instrument. For optical density measurement during bacteriology experiments, Tecan Infinite Pro series M200 Microplate Reader was used. Bacterial strains, A. baumannii (R674), P. aeruginosa (R590), E. coli (R3336) and K. pneumoniae (R3934) were used for the studies.
(§2) The combination efficacy with antibiotics from different classes and individual antibacterial activity of the synthesized adjuvants was evaluated against the above mentioned MDR and NDM-1 strains of Gram-negative bacteria. All the bacteria were grown in peptone. The bacterial samples were freeze dried and stored at −80° C. 3 μl of these stocks were added to 3 mL of peptone and the culture was grown for 6 h at 37° C. prior to the experiments.
(§3) All synthesized compounds were assayed for their antibacterial activity in combination with antibiotics in a modified chequerboard micro-dilution broth format. Stock solutions were made by serially diluting the compounds using autoclaved millipore water. The bacterial freeze dried stock samples were stored at −80° C. About 3 μL of these stocks were added to about 3 mL of the respective broth and the culture was grown for about 6 h at about 37° C. with prior to the experiments. This 6 h grown culture gives about 10^8 cfu/mL in case of A. baumannii R674, P. aeruginosa R590, E. coli R3336 and K. pneumoniae R3934 which were determined by spread plating method. This 6 h grown culture was diluted to give effective cell concentration of 10^5 cfu/mL, and then used for the chequerboard assay. Adjuvants and antibiotics were serially diluted in two-fold, in sterile millipore water. 25 μL of these serial dilutions of the antibiotics and 25 μL of compounds were added to the wells of 96 well plate followed by the addition of about 150 μL of bacterial solution (˜10^5 cfu/mL). The plates were then incubated at about 37° C., 150 rpm in the incubator and O.D at 600 nm was recorded at 24 h using TECAN (Infinite series, M200 pro) Plate Reader. The wells with similar OD as the media control contained the required concentration of the antibiotic and adjuvant for antibacterial efficacy. The potentiation ability of the adjuvants was determined by calculating the potentiation factor and the Fractional Inhibitory concentration (FIC) index. Fractional Inhibitory Concentration (FIC) is expressed as, FIC=[X]/MICX, where [X] is the lowest inhibitory concentration of antibiotic in the presence of the adjuvant. Whereas FIC index is expressed as, FICI=FICantibiotic+FICadjuvant. The values of FIC index give an insight about the nature of the combination. Potentiation factor which means fold-reduction in the MIC of the antibiotic, when used in combination with the adjuvant was also determined. Potentiation factor=[Minimum inhibitory concentration (MIC) of antibiotic in absence of adjuvant]/[MIC of antibiotic in presence of adjuvant]. […] The combination efficacies of adjuvants with various antibiotics are furnished in Table 1. It should be noted that various other resistant strains of bacteria (Gram-positive and Gram-negative) can be tested with a number of other antibiotics to check the potentiation capacity of the adjuvants.

[2] = test system: P. aeruginosa R590; assay: as above; settings: P. aeruginosa R590
Method: as §1, §2, §3

[3] = test system: A. baumannii R674; assay: Individual antibacterial activity (MIC) of adjuvants; settings: adjuvant alone, A. baumannii R674
Method: as §2, §3

[4] = test system: P. aeruginosa R590; assay: as above; settings: adjuvant alone, P. aeruginosa R590
Method: as §2, §3

[5] = test system: human RBCs; assay: Haemolytic activity; settings: concentration at which 50% of human blood cells are lysed; 1 h at 37° C.
Method: Erythrocytes were isolated from freshly drawn, heparanized human blood and re-suspended to 5 vol % in PBS (pH 7.4). In a 96-well microtiter plate, 150 μl of erythrocyte suspension was added to 50 μl of serially diluted compound. Two controls were made, one without compound and other with 50 μl of 1 vol % solution of Triton X-100. The plate was incubated for 1 h at 37° C. The plate was then centrifuged at 3,500 rpm for 5 min, 100 μl of the supernatant from each well was transferred to a fresh 96-well microtiter plate, and A540 was measured. Percentage of hemolysis was determined as (A−A0)/(Atotal−A0)×100, where A is the absorbance of the test well, A0 the absorbance of the negative controls (without compound), and Atotal the absorbance of 100% hemolysis wells (with Triton X-100), all at 540 nm.
Toxicity studies of the compounds were done on freshly drawn human RBCs. Toxicity of the compounds were defined by their HC50 values (Table 2), i.e. the concentration of compound at which 50% of the blood cells are lysed.

[6] = test system: E. coli R3336; assay: Chequerboard combination efficacy of adjuvant with antibiotics
Method: as §1, §2, §3

[7] = test system: K. pneumoniae R3934; assay: as above
Method: as §1, §2, §3

[8] = test system: E. coli R3336; assay: Individual antibacterial activity (MIC) of adjuvants; settings: Escherichia coli, R3336, read-out: MIC against clinical isolates of bacteria
Method: as §2, §3

[9] = test system: K. pneumoniae R3934; assay: as above; settings: Klebsiella pneumoniae; adjuvant alone; K. pneumoniae R3934; read-out: MIC against clinical isolates of bacteria
Method: as §2, §3

SMILES: NCCCCCCN(CCCCCCN)C(=O)Cc1cccc2ccccc12 [Compound 10, N,N-bis-[(6-amino)hexyl] naphthyl ethanamide bistrifluoroacetate]
- FICI ([1]; antibiotic Rifampicin): <0.14
- MIC of antibiotic in presence of adjuvant ([1]; antibiotic Rifampicin): 1 µg/mL
- Potentiation factor ([1]; antibiotic Rifampicin): 64
- FICI ([1]; antibiotic Tetracycline): <0.375
- MIC of antibiotic in presence of adjuvant ([1]; antibiotic Tetracycline): 16 µg/mL
- Potentiation factor ([1]; antibiotic Tetracycline): 8
- FICI ([2]; antibiotic Rifampicin): <0.133
- MIC of antibiotic in presence of adjuvant ([2]; antibiotic Rifampicin): 1 µg/mL
- Potentiation factor ([2]; antibiotic Rifampicin): 128
- FICI ([2]; antibiotic Tetracycline): <0.375
- MIC of antibiotic in presence of adjuvant ([2]; antibiotic Tetracycline): 32 µg/mL
- Potentiation factor ([2]; antibiotic Tetracycline): 8
- MIC against clinical isolates of bacteria [3]: >512 µg/mL
- MIC against clinical isolates of bacteria [4]: >512 µg/mL
- HC50 [5]: >1024 µg/mL

SMILES: NCCCCCCN(CCCCCCN)C(=O)CC(c1ccccc1)c1ccccc1.O=C(O)C(F)(F)F.O=C(O)C(F)(F)F [Compound 11, N,N-bis-[(6-amino)hexyl] 3,3-diphenyl propanamide bistrifluoroacetate]
- FICI ([1]; antibiotic Rifampicin): 0.1328
- MIC of antibiotic in presence of adjuvant ([1]; antibiotic Rifampicin): 0.5 µg/mL
- Potentiation factor ([1]; antibiotic Rifampicin): 128
- FICI ([1]; antibiotic Tetracycline): 1
- MIC of antibiotic in presence of adjuvant ([1]; antibiotic Tetracycline): 64 µg/mL
- Potentiation factor ([1]; antibiotic Tetracycline): 2
- FICI ([2]; antibiotic Rifampicin): 0.07
- MIC of antibiotic in presence of adjuvant ([2]; antibiotic Rifampicin): 1 µg/mL
- FICI ([2]; antibiotic Tetracycline): 0.375
- MIC of antibiotic in presence of adjuvant ([2]; antibiotic Tetracycline): 32 µg/mL
- Potentiation factor ([2]; antibiotic Tetracycline): 8
- MIC against clinical isolates of bacteria [3]: 128 µg/mL
- MIC against clinical isolates of bacteria [4]: 256 µg/mL
- HC50 [5]: >1024 µg/mL

SMILES: NCCCCCCN(CCCCCCN)CC(=O)NC1C2CC3CC(C2)CC1C3.O=C(O)C(F)(F)F.O=C(O)C(F)(F)F.O=C(O)C(F)(F)F (stereo not drawn) [Compound 12, N-(adamantan-2-yl)-2-[N′,N′-{bis-(6-amino)hexyl}amino] ethanamide tristrifluoroacetate]
- FICI ([1]; antibiotic Rifampicin): <0.252
- MIC of antibiotic in presence of adjuvant ([1]; antibiotic Rifampicin): <0.125 µg/mL
- Potentiation factor ([1]; antibiotic Rifampicin): >512
- FICI ([1]; antibiotic Tetracycline): 0.625
- MIC of antibiotic in presence of adjuvant ([1]; antibiotic Tetracycline): 16 µg/mL
- Potentiation factor ([1]; antibiotic Tetracycline): 8
- FICI ([2]; antibiotic Rifampicin): 0.251
- MIC of antibiotic in presence of adjuvant ([2]; antibiotic Rifampicin): 0.125 µg/mL
- Potentiation factor ([2]; antibiotic Rifampicin): 1024
- FICI ([2]; antibiotic Tetracycline): 0.75
- MIC of antibiotic in presence of adjuvant ([2]; antibiotic Tetracycline): 64 µg/mL
- Potentiation factor ([2]; antibiotic Tetracycline): 4
- MIC against clinical isolates of bacteria [3]: 64 µg/mL
- MIC against clinical isolates of bacteria [4]: 64 µg/mL
- HC50 [5]: >1024 µg/mL

SMILES: NCCCC[C@H](N)C(=O)NCCCCCCN(CCCCCCNC(=O)[C@@H](N)CCCCN)CC(=O)NC1C2CC3CC(C2)CC1C3 (stereo partly drawn) [Compound 15, N-(adamantan-2-yl)-2-[N′,N′-{bis-(6-^LLys) amido)hexyl} amino] ethanamide pentakistrifluoroacetate]
- FICI ([6]; antibiotic Fusidic acid): <0.1875
- Potentiation factor ([6]; antibiotic Fusidic acid): >16
- MIC of antibiotic in presence of adjuvant ([6]; antibiotic Linezolid): No potentiation
- FICI ([6]; antibiotic Minocycline): <0.0469
- MIC of antibiotic in presence of adjuvant ([6]; antibiotic Minocycline): 0.5 µg/mL
- Potentiation factor ([6]; antibiotic Minocycline): 64
- FICI ([6]; antibiotic Rifampicin): <0.0469
- MIC of antibiotic in presence of adjuvant ([6]; antibiotic Rifampicin): 16 µg/mL
- Potentiation factor ([6]; antibiotic Rifampicin): 32
- MIC of antibiotic in presence of adjuvant ([1]; antibiotic Ampicillin): No potentiation
- FICI ([1]; antibiotic Ciprofloxacin): 1.25
- MIC of antibiotic in presence of adjuvant ([1]; antibiotic Ciprofloxacin): 64 µg/mL
- Potentiation factor ([1]; antibiotic Ciprofloxacin): 4
- FICI ([1]; antibiotic Erythromycin): 0.1875
- MIC of antibiotic in presence of adjuvant ([1]; antibiotic Erythromycin): 32 µg/mL
- Potentiation factor ([1]; antibiotic Erythromycin): 16
- FICI ([1]; antibiotic Fusidic acid): <0.07
- MIC of antibiotic in presence of adjuvant ([1]; antibiotic Fusidic acid): <0.5 µg/mL
- Potentiation factor ([1]; antibiotic Fusidic acid): >128
- FICI ([1]; antibiotic Linezolid): 1.125
- Potentiation factor ([1]; antibiotic Linezolid): 8
- FICI ([1]; antibiotic Minocycline): 0.5625
- MIC of antibiotic in presence of adjuvant ([1]; antibiotic Minocycline): 0.5 µg/mL
- Potentiation factor ([1]; antibiotic Minocycline): 16
- FICI ([1]; antibiotic Rifampicin): 0.1289
- MIC of antibiotic in presence of adjuvant ([1]; antibiotic Rifampicin): 0.25 µg/mL
- Potentiation factor ([1]; antibiotic Rifampicin): 256
- MIC of antibiotic in presence of adjuvant ([1]; antibiotic Streptomycin): No potentiation
- FICI ([1]; antibiotic Tetracycline): 0.5156
- MIC of antibiotic in presence of adjuvant ([1]; antibiotic Tetracycline): 2 µg/mL
- Potentiation factor ([1]; antibiotic Tetracycline): 64
- FICI ([1]; antibiotic Vancomycin): 0.5625
- Potentiation factor ([1]; antibiotic Vancomycin): 2
- FICI ([7]; antibiotic Fusidic acid): <0.0781
- MIC of antibiotic in presence of adjuvant ([7]; antibiotic Fusidic acid): 8 µg/mL
- Potentiation factor ([7]; antibiotic Fusidic acid): 64
- MIC of antibiotic in presence of adjuvant ([7]; antibiotic Linezolid): No potentiation
- FICI ([7]; antibiotic Minocycline): <0.07
- MIC of antibiotic in presence of adjuvant ([7]; antibiotic Minocycline): 0.5 µg/mL
- Potentiation factor ([7]; antibiotic Minocycline): 128
- FICI ([7]; antibiotic Rifampicin): <0.1289
- MIC of antibiotic in presence of adjuvant ([7]; antibiotic Rifampicin): 2 µg/mL
- Potentiation factor ([7]; antibiotic Rifampicin): 256
- Potentiation factor ([2]; antibiotic Chloramphenicol): 4
- FICI ([2]; antibiotic Colistin): 0.3125
- MIC of antibiotic in presence of adjuvant ([2]; antibiotic Colistin): 0.25 µg/mL
- Potentiation factor ([2]; antibiotic Colistin): 4
- MIC of antibiotic in presence of adjuvant ([2]; antibiotic Daptomycin): No potentiation
- FICI ([2]; antibiotic Fusidic acid): <0.1289
- MIC of antibiotic in presence of adjuvant ([2]; antibiotic Fusidic acid): <0.25 µg/mL
- Potentiation factor ([2]; antibiotic Fusidic acid): >256
- FICI ([2]; antibiotic Linezolid): 0.2812
- Potentiation factor ([2]; antibiotic Linezolid): 4
- FICI ([2]; antibiotic Minocycline): 0.5
- MIC of antibiotic in presence of adjuvant ([2]; antibiotic Minocycline): 2 µg/mL
- Potentiation factor ([2]; antibiotic Minocycline): 4
- FICI ([2]; antibiotic Rifampicin): <0.126
- MIC of antibiotic in presence of adjuvant ([2]; antibiotic Rifampicin): <0.125 µg/mL
- Potentiation factor ([2]; antibiotic Rifampicin): >1024
- FICI ([2]; antibiotic Tetracycline): 0.5078
- MIC of antibiotic in presence of adjuvant ([2]; antibiotic Tetracycline): 2 µg/mL
- Potentiation factor ([2]; antibiotic Tetracycline): 128
- MIC [8]: > 512 µg/mL
- MIC ([3]; Acinetobacter baumannii, read-out: MIC against clinical isolates of bacteria): 128 µg/mL
- MIC [9]: > 512 µg/mL
- MIC ([4]; Pseudomonas aeruginosa, read-out: MIC against clinical isolates of bacteria): 64 µg/mL
- HC50 [5]: >1024 µg/mL
